Measured values as given in ChEMBL document CHEMBL3232909, “Arylamino bisphosphonates: potent and selective inhibitors of the tumor-associated carbonic anhydrase XII” (Bioorg Med Chem Lett, 2014).

Tests used:
[1] = molecular target: Carbonic anhydrase 1 (Homo sapiens, UniProt P00915)
Description: Inhibition of human recombinant carbonic anhydrase 1 preincubated for 15 mins by stopped flow CO2 hydration method

[2] = molecular target: Carbonic anhydrase 2 (Homo sapiens, UniProt P00918)
Description: Inhibition of human recombinant carbonic anhydrase 2 preincubated for 15 mins by stopped flow CO2 hydration method

[3] = molecular target: Carbonic anhydrase 9 (Homo sapiens, UniProt Q16790)
[4] = molecular target: Carbonic anhydrase 12 (Homo sapiens, UniProt O43570)
Description: Inhibition of human recombinant carbonic anhydrase 12 preincubated for 15 mins by stopped flow CO2 hydration method

[5] = molecular target: Carbonic anhydrase 14 (Homo sapiens, UniProt Q9ULX7)
Carbonic anhydrase 14, sequence (Q9ULX7 whole entry): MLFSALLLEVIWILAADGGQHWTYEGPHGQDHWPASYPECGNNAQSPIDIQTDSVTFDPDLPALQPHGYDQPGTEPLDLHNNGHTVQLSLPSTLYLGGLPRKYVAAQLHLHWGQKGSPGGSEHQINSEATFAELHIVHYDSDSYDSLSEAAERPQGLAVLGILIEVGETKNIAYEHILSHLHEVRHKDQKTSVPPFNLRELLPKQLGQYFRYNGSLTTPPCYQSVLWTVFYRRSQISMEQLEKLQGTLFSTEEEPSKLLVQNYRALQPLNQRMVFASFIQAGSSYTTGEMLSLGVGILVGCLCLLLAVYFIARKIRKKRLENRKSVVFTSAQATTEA
Description: Inhibition of human recombinant carbonic anhydrase 14 preincubated for 15 mins by stopped flow CO2 hydration method

Carbonic anhydrase 1, sequence (P00915 whole entry): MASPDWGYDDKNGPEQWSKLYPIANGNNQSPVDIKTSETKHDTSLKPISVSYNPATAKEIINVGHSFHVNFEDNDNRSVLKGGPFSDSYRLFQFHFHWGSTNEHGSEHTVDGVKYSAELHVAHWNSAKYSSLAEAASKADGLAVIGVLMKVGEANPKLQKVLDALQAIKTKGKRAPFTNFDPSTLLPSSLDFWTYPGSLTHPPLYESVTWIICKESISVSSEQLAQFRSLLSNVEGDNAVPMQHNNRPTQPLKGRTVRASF
Carbonic anhydrase 12, sequence (O43570 whole entry): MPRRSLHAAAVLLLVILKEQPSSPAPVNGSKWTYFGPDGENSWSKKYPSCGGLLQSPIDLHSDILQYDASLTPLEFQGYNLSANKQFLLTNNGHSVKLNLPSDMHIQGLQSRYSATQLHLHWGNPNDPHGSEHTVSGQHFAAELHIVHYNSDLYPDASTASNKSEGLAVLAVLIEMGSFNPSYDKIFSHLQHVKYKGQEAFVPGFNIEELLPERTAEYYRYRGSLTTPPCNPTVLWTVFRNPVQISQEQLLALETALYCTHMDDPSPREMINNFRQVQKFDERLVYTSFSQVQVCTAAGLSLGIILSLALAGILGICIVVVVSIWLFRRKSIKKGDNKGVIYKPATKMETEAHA

`O=P(O)(O)C(Nc1ccc(F)cc1)P(=O)(O)O` was tested, and the IC50 [1] was > 10 µM, the IC50 [2] was > 10 µM and the IC50 [3] was > 10 µM. The IC50 [4] was 0.269 µM and the IC50 [5] was > 10 µM.

In the case of `O=P(O)(O)C(Nc1ccccc1)P(=O)(O)O` [(PHENYLAMINO)METHYLENEDIPHOSPHONIC ACID], the IC50 [1] is reported as > 10 µM, the IC50 [2] is reported as > 10 µM and the IC50 [3] is reported as 8.92 µM. For the same compound, the IC50 [4] was 0.437 µM and the IC50 [5] was > 10 µM.

For `O=[N+]([O-])c1ccc(NC(P(=O)(O)O)P(=O)(O)O)cc1`, the IC50 [1] was 7.98 µM, the IC50 [2] was > 10 µM and the IC50 [3] was > 10 µM. The IC50 [4] was 0.419 µM and the IC50 [5] was > 10 µM.

For `O=P(O)(O)C(Nc1cccc2ccccc12)P(=O)(O)O`, the IC50 [1] was > 10 µM, the IC50 [2] was 9.09 µM and the IC50 [3] was > 10 µM. The IC50 [4] was 6.92 µM and the IC50 [5] was 0.319 µM.

In the case of `O=P(O)(O)C(Nc1ccc(Cl)c(Cl)c1)P(=O)(O)O` [3,4-DICHLOROPHENYLAMINOMETHYLENEBISPHOSPHONIC ACID], the IC50 [1] is reported as > 10 µM, the IC50 [2] is reported as > 10 µM and the IC50 [3] is reported as > 10 µM. The IC50 [4] was > 10 µM and the IC50 [5] was 7.84 µM.

For `O=P(O)(O)C(Nc1ccc(-c2ccccc2)cc1)P(=O)(O)O`, the IC50 [1] was > 10 µM, the IC50 [2] was > 10 µM and the IC50 [3] was > 10 µM. The IC50 [4] was > 10 µM and the IC50 [5] was 8.21 µM.

With `O=P(O)(O)C(Nc1ccc(Cl)cc1Cl)P(=O)(O)O` [2,4-DICHLOROPHENYLAMINOMETHYLENEBISPHOSPHONIC ACID] the IC50 [1] was 7.14 µM, the IC50 [2] was > 10 µM and the IC50 [3] was > 10 µM. For the same compound, the IC50 [4] was > 10 µM and the IC50 [5] was 7.46 µM.

For `O=P(O)(O)C(Nc1ccc(O)cc1)P(=O)(O)O`, the IC50 [1] was 4.57 µM, the IC50 [2] was 8.2 µM and the IC50 [3] was > 10 µM. For the same compound, the IC50 [4] was 0.078 µM and the IC50 [5] was > 10 µM.

In the case of `O=P(O)(O)C(Nc1cccc(Br)c1)P(=O)(O)O`, the IC50 [1] is reported as 8.29 µM, the IC50 [2] is reported as > 10 µM and the IC50 [3] is reported as > 10 µM. For the same compound, the IC50 [4] was > 10 µM and the IC50 [5] was 0.911 µM.

For `O=P(O)(O)C(Nc1ccc(Oc2ccc(Cl)cc2)cc1)P(=O)(O)O`, the IC50 [1] was > 10 µM, the IC50 [2] was 9.37 µM and the IC50 [3] was 8.23 µM. The IC50 [4] was > 10 µM and the IC50 [5] was 4.42 µM.

For `O=[N+]([O-])c1cccc(NC(P(=O)(O)O)P(=O)(O)O)c1` [(3-NITROPHENYLAMINO)METHYLENEDIPHOSPHONIC ACID], the IC50 [1] was 0.814 µM, the IC50 [2] was > 10 µM and the IC50 [3] was > 10 µM. The IC50 [4] was 0.088 µM and the IC50 [5] was > 10 µM.

With `O=P(O)(O)C(Nc1cccc(-c2ccccc2)c1)P(=O)(O)O` the IC50 [1] was > 10 µM, the IC50 [2] was 9.37 µM and the IC50 [3] was 7.63 µM. The IC50 [4] was > 10 µM and the IC50 [5] was 0.309 µM.

For `O=P(O)(O)C(Nc1ccc(Oc2ccccc2)cc1)P(=O)(O)O`, the IC50 [1] was > 10 µM, the IC50 [2] was > 10 µM and the IC50 [3] was 8.21 µM. For the same compound, the IC50 [4] was > 10 µM and the IC50 [5] was 5.5 µM.

In the case of `O=P(O)(O)C(Nc1cccc(F)c1)P(=O)(O)O`, the IC50 [1] is reported as > 10 µM, the IC50 [2] is reported as > 10 µM and the IC50 [3] is reported as 8.23 µM. It also gave an IC50 [4] of 8.69 µM and an IC50 [5] of 0.082 µM.

For `Cc1ccc(NC(P(=O)(O)O)P(=O)(O)O)cc1` [(P-TOLYLAMINO)METHYLENEDIPHOSPHONIC ACID], the IC50 [1] was 5.93 µM, the IC50 [2] was > 10 µM and the IC50 [3] was > 10 µM. For the same compound, the IC50 [4] was 0.35 µM and the IC50 [5] was > 10 µM.

In the case of `O=[N+]([O-])c1cc(NC(P(=O)(O)O)P(=O)(O)O)ccc1F`, the IC50 [1] is reported as 5.53 µM, the IC50 [2] is reported as > 10 µM and the IC50 [3] is reported as > 10 µM. For the same compound, the IC50 [4] was > 10 µM and the IC50 [5] was 8.81 µM.

With `O=P(O)(O)C(Nc1ccc(Oc2ccc(Br)cc2)cc1)P(=O)(O)O` the IC50 [1] was > 10 µM, the IC50 [2] was 7.47 µM and the IC50 [3] was 8.17 µM. The IC50 [4] was > 10 µM and the IC50 [5] was 6.12 µM.

With `O=P(O)(O)C(O)(Cn1ccnc1)P(=O)(O)O` [ZOLEDRONIC ACID] the IC50 [1] was > 10 µM, the IC50 [2] was 0.062 µM and the IC50 [3] was 5.32 µM. It also gave an IC50 [4] of 0.316 µM and an IC50 [5] of 0.092 µM.

For `O=P(O)(O)C(Nc1ccc(C(F)(F)F)cc1)P(=O)(O)O`, the IC50 [1] was 6.08 µM, the IC50 [2] was > 10 µM and the IC50 [3] was > 10 µM. The IC50 [4] was 0.089 µM and the IC50 [5] was > 10 µM.

For `O=P(O)(O)C(Nc1ccc(Br)cc1)P(=O)(O)O`, the IC50 [1] was > 10 µM, the IC50 [2] was > 10 µM and the IC50 [3] was > 10 µM. The IC50 [4] was 0.239 µM and the IC50 [5] was > 10 µM.

In the case of `O=P(O)(O)C(Nc1cccc(C(F)(F)F)c1)P(=O)(O)O`, the IC50 [1] is reported as 5.83 µM, the IC50 [2] is reported as > 10 µM and the IC50 [3] is reported as > 10 µM. The IC50 [4] was 0.092 µM and the IC50 [5] was > 10 µM.
